In US8653023B1, “Dual beneficial effect of dopamine enhancing and neuroprotective actions of PKC delta inhibitors for treatment of Parkinson's disease” (Iowa State University Research Foundation, Inc., priority 2006, dated 2014):

Legend:
[1] = test system: MPTP-treated C57 black mice; assay: TH+ neuron count in substantia nigra pars compacta of MPTP mice (stereology); type: in vivo
Protocol: (§1) Six to 8-week-old […] mice weighing 30 g were housed in standard conditions: constant temperature (22±1° C.), humidity (relative, 30%) and a 12-h light/dark cycle, and were allowed free access to food and water. The animals and protocol procedures were approved and supervised by the Committee on Animal Care (COAC) at the Iowa State University. Rottlerin was dissolved in 1% dimethyl sulfoxide (DMSO) and was administered intraperitoneally at various doses. An equal volume of DMSO was given to controls. Rottlerin and DMSO administrations were started 24 h before the injections of the MPTP and continued for 5 days in the MPTP model. In the chronic regimens of MPTP administration, MPTP in phosphate-buffered saline (PBS) was injected intraperitoneally at doses of 30 mg/kg, once a day. Mice were sacrificed 2 days after the MPTP injections, and the striata were dissected for catecholamine analysis. Additionally, rottlerin alone (0.3-20 mg/kg) was administered via intraperitoneally or orally and then brain tissues were subjected to neurochemical analyses (FIG. 8). The mesencephalons were fixed in 4% paraformaldehyde for 5 days for tyrosine hydroxylase (TH) immunostaining.
Brains removed following cervical dislocation were post-fixed in paraformaldehyde and used for TH immunolabelling and stereological studies. Fixed brains were cut into 30-μm sections and collected in cryoprotectant. Sections were rinsed in PBS at room temperature before immunostaining, then incubated with a anti-TH antibody as described (Thiruchelvam, McCormack et al. 2003; Thiruchelvam, Powers et al. 2004). The total number of TH^+ and TH Nissl-stained neurons in the SNpc were counted using the optical fractionator and previously described counting criteria (Thiruchelvam, McCormack et al. 2003; Thiruchelvam, Powers et al. 2004). After delineation of the region at low magnification (4× objective), every fourth section from the entire substantia nigra was sampled at higher magnification (100× objective) using StereoImager (Microbrightfield, Vt.).

PKCδ = PKCδ (Homo sapiens, UniProt Q05655); settings: cited from earlier work
[2] = test system: tyrosine hydroxylase (TH); assay: TH phosphorylation in N27 cells (Western blot, immunofluorescence); type: cell-based, rat; settings: N27 cells
Protocol: PC12 cells, differentiated N27 dopaminergic cells and primary mesencephalic neurons were exposed to 1-10 μM rottlerin for the duration of the experiment. DMSO (0.01%) was used as vehicle control. PKCδ-DN- and Lac Z-expressing N27 cells were only treated with 0.01% DMSO. […] Untreated or vehicle treated cells were used as control samples.
Cell and brain lysates containing equal amounts of protein were loaded in each lane and separated on a 10-12% SDS-PAGE gel as described previously (Kaul et al., 2003). After the separation, proteins were transferred to nitrocellulose membrane, and nonspecific binding sites were blocked by treating with 5% nonfat dry milk powder. The membranes were then treated with primary antibodies directed against PKCδ (rabbit polyclonal or mouse monoclonal, 1:2000 dilution), TH (rabbit polyclonal or mouse monoclonal, 1:1000), phospho TH-ser40 (rabbit polyclonal, 1:1000), phospho TH-ser31 TH (rabbit polyclonal, 1:1000), or PP2A (mouse monoclonal, 1:1000). The primary antibody treatments were followed by treatment with secondary HRP-conjugated anti-rabbit or anti-mouse IgG (1:2000) for 1 hr at RT. Secondary antibody-bound proteins were detected using Amersham's ECL chemiluminescence kit. To confirm equal protein loading, blots were reprobed with a β-actin antibody (1:5000 dilution). Western blot images were captured with a Kodak 2000 MM imaging system and data were analyzed using 1D Kodak imaging analysis software.
Immunostaining of PKCδ, TH, Ser40 P-TH and Ser31 P-TH was performed in PC12, N27 and primary mesencephalic neurons. Cells were grown on poly-L-Lysine-coated glass cover slips. After treatment, the cells were fixed with 4% paraformaldehyde and processed for immunohistochemical staining. First, non-specific sites were blocked with 5% normal goat serum containing 0.4% BSA and 0.2% Triton-X 100 in PBS for 20 min. Cells were then incubated with antibodies directed against PKCδ (1:500 dilution), TH (1:500 dilution), and P-THSer40 (1:500 dilution) overnight at 4° C. followed by incubation with either Alexa 488-conjugated (green, 1:1000) or Cy3-conjugated (red, 1:1000) secondary antibody for 1 hr at RT. Secondary antibody treatments were followed by incubation with Hoechst 33342 (10 μg/ml) for 3 min at room temperature to stain the nucleus. Then the coverslips containing stained cells were washed with PBS, mounted on a slide, and viewed under a Nikon inverted fluorescence microscope (Model TE-2000U); images were captured with a SPOT digital camera (Diagnostic Instruments, Sterling Heights, Mich.).

cells = settings: cited from earlier work
[3] = test system: MPTP-treated C57 black mice; assay: Locomotor activity of MPTP-treated mice (VersaMax); type: in vivo; settings: rottlerin 20 mg/kg + MPTP 30 mg/kg 5 days
From the text: Behavioral data were collected using VersaMax Animal Activity Monitors (AccuScan Model RXYZCM-16, Columbus, Ohio). Each chamber was 40×40×30.5 cm^3, made of clear Plexiglas and covered with a Plexiglas lid with air-holes. Infrared monitoring sensors were located every 2.54 cm along the perimeter (16 infrared beams along each side) and 2.5 cm above the floor. Two additional sets of 16 sensors were located 8.0 cm above the floor on opposite sides. Data were collected and analyzed by a VersaMax Analyzer (AccuScan Model CDA-8, Columbus, Ohio) which in turn sent information to an IBM computer where it was stored for future analyses. Locomotor activity was presented as horizontal movement and vertical movement. All data are expressed as percent of the vehicle-treated control group (mean 6 SEM) and were obtained 1 day after MPTP or vehicle treatment in a 20-min test session.

PKCα or PKCβ = settings: cited from earlier work
CAM kinase III = CAM kinase III (Homo sapiens, UniProt O00418); settings: cited from earlier work
[4] = test system: MPTP-treated C57 black mice; assay: MPTP-induced striatal dopamine depletion (HPLC-EC); type: in vivo
Protocol: as §1
DA and DOPAC levels in brain striatal tissues were determined by high-performance liquid chromatography with electrochemical detection (HPLC-EC); samples were prepared as described previously (Kitazawa, Anantharam et al. 2001). Briefly, neurotransmitters were extracted from samples using 0.1M perchloric acid containing 0.05% Na2EDTA and 0.1% Na2S2O5. The extracts were filtered in 0.22 micron spin tubes and 20 μl of the samples was loaded for analysis. DA and DOPAC were separated isocratically by a reversed-phase column with a flow rate of 0.7 ml/min. An HPLC system (ESA Inc., Bedford, Mass.) with an ESA automatic sampler (model 542) was used for these experiments. The electrochemical detection (EC) system consisted of an ESA coulochem model 5100A with a microanalysis cell model 5014A and a guard cell model 5020 (ESA Inc., Bedford, Mass.). The DA and DOPAC levels were measured as pg/mg protein and expressed as percent of control.

Chain of PKCδ (Q05655 whole entry): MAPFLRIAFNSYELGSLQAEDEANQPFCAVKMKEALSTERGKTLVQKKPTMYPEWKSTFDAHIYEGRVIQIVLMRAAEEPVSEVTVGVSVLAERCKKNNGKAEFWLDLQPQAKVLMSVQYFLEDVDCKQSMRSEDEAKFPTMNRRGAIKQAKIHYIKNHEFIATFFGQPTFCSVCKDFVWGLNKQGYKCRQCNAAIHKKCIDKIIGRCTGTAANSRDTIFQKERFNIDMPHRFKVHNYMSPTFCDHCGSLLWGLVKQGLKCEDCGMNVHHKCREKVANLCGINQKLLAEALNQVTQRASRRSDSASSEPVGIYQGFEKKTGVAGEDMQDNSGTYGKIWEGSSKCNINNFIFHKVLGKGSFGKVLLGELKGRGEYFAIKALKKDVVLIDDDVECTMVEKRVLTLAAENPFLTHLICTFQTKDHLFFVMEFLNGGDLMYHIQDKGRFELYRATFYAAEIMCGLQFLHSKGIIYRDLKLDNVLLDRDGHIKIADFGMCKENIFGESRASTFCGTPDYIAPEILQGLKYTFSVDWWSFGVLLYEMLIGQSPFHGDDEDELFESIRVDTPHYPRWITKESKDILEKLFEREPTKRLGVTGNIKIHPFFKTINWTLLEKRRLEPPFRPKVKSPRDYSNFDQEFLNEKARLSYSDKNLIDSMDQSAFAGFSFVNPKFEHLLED
Chain of CAM kinase III (O00418 whole entry): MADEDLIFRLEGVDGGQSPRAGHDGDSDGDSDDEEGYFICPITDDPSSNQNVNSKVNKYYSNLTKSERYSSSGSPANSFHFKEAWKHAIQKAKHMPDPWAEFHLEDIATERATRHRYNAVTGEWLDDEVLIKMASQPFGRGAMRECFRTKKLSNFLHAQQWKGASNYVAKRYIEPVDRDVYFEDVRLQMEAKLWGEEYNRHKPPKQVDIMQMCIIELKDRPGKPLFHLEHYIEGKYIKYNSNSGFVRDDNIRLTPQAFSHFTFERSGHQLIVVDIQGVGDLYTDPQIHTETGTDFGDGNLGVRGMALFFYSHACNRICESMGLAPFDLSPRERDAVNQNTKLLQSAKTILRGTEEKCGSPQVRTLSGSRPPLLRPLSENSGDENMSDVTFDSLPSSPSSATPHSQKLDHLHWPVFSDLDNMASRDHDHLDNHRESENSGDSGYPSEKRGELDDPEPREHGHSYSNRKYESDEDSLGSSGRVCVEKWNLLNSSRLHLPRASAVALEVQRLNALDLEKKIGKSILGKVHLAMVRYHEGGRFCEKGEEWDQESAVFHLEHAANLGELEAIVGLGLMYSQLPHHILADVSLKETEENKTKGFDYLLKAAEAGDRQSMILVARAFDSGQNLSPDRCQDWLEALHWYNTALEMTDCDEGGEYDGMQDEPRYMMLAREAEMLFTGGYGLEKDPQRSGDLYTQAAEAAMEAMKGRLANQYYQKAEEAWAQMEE

Q: For `CC(=O)c1c(O)c(C)c(O)c(Cc2c(O)c3c(c(C(=O)/C=C/c4ccccc4)c2O)OC(C)(C)C=C3)c1O` [rottlerin], which “protective effect against SNpc cell loss” value ([1]; cotreatment with 20 mg/kg rottlerin) is on record?
A: The value was 37%.

Q: What about the “cell loss in SNpc” value ([1]; cotreatment with 20 mg/kg rottlerin and MPTP 30 mg/kg) of the same compound?
A: The value was 13%.

Q: What about the IC50 (PKCδ) of the same compound?
A: The IC50 was 3 to 6 µM.

Q: What about the “level of total TH” value [2] of the same compound?
A: The value was “unaltered”.

Q: What about the asbestos-induced apoptosis (cells) of the same compound?
A: Its asbestos-induced apoptosis is “inhibited”.

Q: And the “horizontal movement, percent of vehicle-treated control” value [3]?
A: Its value is 76.93%.

Q: And the “vertical movement, percent of vehicle-treated control” value [3]?
A: Its value is 79%.

Q: What about the “fold more potent on PKCδ than on PKCα or PKCβ” value (PKCα or PKCβ) of the same compound?
A: The value was 5- to 10 fold.

Q: And the inhibiting concentration (CAM kinase III)?
A: The inhibiting concentration was 3 to 6 µM.

Q: What about the “protection against dopamine loss induced by MPTP toxicity in striatum” value ([4]; 20 mg/kg rottlerin) of the same compound?
A: Its value is 50%.

Q: And the “MPTP-induced decrease in dopamine and metabolite levels” value ([4]; oral 20 mg/kg and i.p. 3, 7 and 10 mg/kg rottlerin, dose-dependent)?
A: Its value is “significantly antagonized”.

Q: What about the “dopamine level in striatum” value ([4]; rottlerin 20 mg/kg + MPTP 30 mg/kg for 5 days) of the same compound?
A: The value was 112.8±25.32 pg/mg tissue weight.
